{"source": "patent US20220177511A1", "about": "“SERIES OF HALOGENATED TETRACYCLIC TRITERPENE DERIVATIVES AND THEIR PREPARATION AND APPLICATION” (SHANGHAI KING-X BIOTECH CO., LTD, priority 2019, published 2022)", "assay": "Metabolic stability in human liver microsomes", "type": "in vitro ADME", "protocol": "Preparation of the test sample: Compound 1 (prepared in Example 5), 2 (prepared in Example 4), and 5 (cycloastragenol, purchased from Chengdu Jintaihe Company) were dissolved with an appropriate amount of DMSO to obtain a concentration of 10 mM solution.\n1) The compound was diluted with DMSO to 0.5 mM, and diluted to 1/20 with PBS before the experiment.\n2) Human liver microsomes and potassium phosphate buffer were added to the EP tube respectively and mixed by gentle shaking.\n3) Pre-incubate the EP tube in a metal bath at 37° C. for 5 minutes. 4) Compound 1, 2 or 5 were added and incubated at 37° C.\n5) Take 100 μl of sample from the tube at 0, 60, 120, 240, and 360 minutes respectively, and add the sample to the stop tube (containing 100 μl of cooled acetonitrile solution). The mixture was shaken vigorously to terminate the reaction and then placed it in a −30° C. refrigerator until analysis.\n6) Centrifuge at 14300 r/min and 4° C. for 10 minutes, aspirate the supernatant and place it in a −30° C. refrigerator until analysis.\nColumn: Shim-pack XR-ODS II, 2.0×75 mm; mobile phase: mobile phase B: aqueous solution containing 0.2% formic acid; mobile phase A: acetonitrile solution; mobile phase ratio: […]", "note": "Entries after “also recorded” stand apart in the source; their conditions may differ.", "data": [{"smiles": "CC(C)(O)[C@@H]1CC[C@](C)([C@H]2[C@@H](O)C[C@@]3(C)[C@@H]4C[C@H](O)[C@H]5C(C)(C)C(F)(F)CC[C@@]56C[C@@]46CC[C@]23C)O1", "note": "[Compound 2, (2aR,3R,4S,5aS,5bS,7S,7aR,11aR,12aS)-9,9-difluoro-3-((2R,5S)-5-(2-hydroxypropan-2-yl)-2-methyltetrahydrofuran-2-yl)-2a,5a,8,8-tetramethyltetradecahydro-1H,12H-cyclopenta[a]cyclopropa[e]phenanthrene-4,7-diol]", "values": [{"measurement": "metabolic stability in human liver microsomes", "setting": "compared with compound 5 (cycloastragenol)", "value": "relatively stable; also recorded: more stable than cycloastragenol"}, {"measurement": "half-life at 5 µM", "setting": "human, liver microsomes, 5 μM compound, 1 mg/mL microsomes, 37° C.", "value": 438, "unit": "min"}]}]}
